Data reported in patent publication US11986315B2, “Apparatus and method for the non-invasive detection of tetrahydrocannabinol use and impairment” (CHILDREN'S NATIONAL MEDICAL CENTER, priority 2018, dated 2024).

Test system: pupillary light reflex of an individual
Assay: pupillary light reflex after inhalation of THC (pupillometry)
Type: in vivo
Description: Following acquisition 131, primary data such as, for instance, pupillary dimensions and pupillary oscillations therefrom, can be determined for each of the plurality of video frames in the video sequence of the eye of the patient 132. […]
Pupillary oscillations and/or reactions to light, as described above, can reflect the activity of the autonomic nervous system. […] The pupillary light reflex can be evaluated via the method, and apparatus thereof, of the present disclosure, wherein higher frequency activation occurs with increased sympathetic tone and lower frequency activation occurs from increased parasympathetic tone. […]
According to an embodiment, a variety of pupillometric measures can be evaluated from pupillary data following initial video sequence processing 132 such that, in combination with secondary data 134 including frequency spectra, patient response profiles can be better characterized. […] As introduced above, the baseline pupil size can be found before the flash of light and the maximally constricted size can be determined after the flash of light. […]

With CCCCCc1cc(O)c2c(c1)OC(C)(C)[C@@H]1CCC(C)=C[C@@H]21 [THC, Δ^9-tetrahydrocannabinol] the “influence on pupillary light reflex” value (cannabis-tolerant individual, 30, 60, 90, 120 and 150 minutes after inhalation of THC, FIG. 4) was “inhibited to varying levels” and the “influence on pupillary light reflex” value (individual, 30, 60, 120 and 180 minutes after inhalation of 24 mg of THC, FIG. 3) was “inhibited to varying levels”.
